Data on three molecules can be found in patent EP3578180A1, “MODULATORS OF SERYL-TRNA SYNTHASE AND PHARMACEUTICAL COMPOSITIONS COMPRISING THE SAME FOR INCREASING CELL HYPOXIC TOLERANCE” (Centre National de la Recherche Scientifique (CNRS), priority 2018, dated 2019).

The structures appear in SMILES notation. Where two headings read alike, the source gives them in different places.

In one data set the test system is PCT cells. Put plainly: LIVE/DEAD cell viability of kidney cells under anoxia. It is filed as cell-based, murine. The method, then:
HT22 mouse hippocampal neuronal cells were cultured in Dulbecco's modified Eagle's medium (DMEM; Gibco) supplemented with 10% FBS (Gibco), 100U/ml streptomycin, 100U/ml penicillin at 37 °C in 5% CO2/95% air. Renal PCT cells were obtained from primary cultures of murine proximal tubule segments and cultured as previously described (Melis, N. et al. Targeting eIF5A Hypusination Prevents Anoxic Cell Death through Mitochondrial Silencing and Improves Kidney Transplant Outcome. J Am Soc Nephrol 28, 811-822, doi:10.1681/ASN.2016010012 (2017)). Hypoxic or anoxic conditions were created by maintaining cell cultures at 37°C in a sealed "Bug-Box" anaerobic workstation (Ruskin Technologies). Oxygen Glucose Deprivation (OGD) was induced on HT22 cells placing them in glucose-free Hepes balanced salt solution without glucose (HBSS: NaCl 116mM, KCl 5.4mM, CaCl2 1.8mM, MgSO4 0.8mM, NAH2PO4 1mM, NaHCO3 26.2mM,; pH 7.2-7.4) in an hypoxic chamber filled with 98.5% N2 and 1.5% CO2 at 37°C for 3h. Upon removal of the cultures from the chamber, the growth medium was changed back to normal medium.
The Fluorescent LIVE/DEAD® Cell Viability/Cytotoxicity Assay Kit (Invitrogen, France) was used on PCT cells (24-well plates) according to the manufacturer's protocol. Fluorescent micrographs were recorded using an observer D1 microscope (Zeiss).
150,000 PCT cells were seeded in Petri dishes and transfected 24 h later with 50 nM serRS pooled siRNAs (Sigma MISSION®esiRNA targeting mouse serRS: EMU081851) using Lipofectamine™ 3000 transfection reagent (Invitrogen). Cells were exposed to various experimental procedures 24-48 h post-transfection, as described in the text.

The subject of the next data set is mice. Put plainly: tMCAo stroke model, infarct volume (cresyl violet). In kind it is in vivo. The following applies: SerHX pretreatment, '15 mM serHX group'; 60 min tMCAo; 24 h post-reperfusion; Fig.3C. The procedure:
Male 7-week old C57BL/6J mice (Janvier France Breeding) were housed in a temperature- and humidity-controlled animal facility with a 12-h light-dark cycle. Food and water were available ad libitum. All animal care and use were performed with in accordance to the policies of European Community Directive 86/609/EEC. All efforts were made to minimize animal suffering and the number of animals used.
tMCAO was performed 30 min after the final injection using a 6-0 coated filament (Doccol), as previously described (Bourourou, M., Heurteaux, C. & Blondeau, N. Alpha-linolenic acid given as enteral or parenteral nutritional intervention against sensorimotor and cognitive deficits in a mouse model of ischemic stroke. Neuropharmacology 108, 60-72, doi:10.1016/j.neuropharm.2016.04.040 (2016)). Control of tMCAo severity and reperfusion was evaluated monitoring the regional cerebral blood flow by laser-Doppler flowmetry. Infarct volume (mm^3) was mesured 24 h post-reperfusion on coronal frozen brain sections ([…]) stained by 1% cresyl violet in 0.25% acetic acid using a computer image analysis system.
Animals were randomly assigned to vehicle or serHX groups prepared for 3 experimental protocols. Protocol 1: Vehicle and serHX were administrated intraperitoneally (416 mM, 150µl IP) 48, 24, 2h before a 60min tMCAo. […]

Consider `C[C@@H]1C[C@@H]([C@H](O)CC2CC(=O)NC(=O)C2)C(=O)[C@@H](C)C1` [cycloheximide], for which, in the data set with PCT cells, the living kidney cells was determined as 64% and the “renal cell survival after 24 h of anoxia (in words)” value is recorded as “increased renal cell survival”.
With `NC(CO)C(=O)NO` (centres unmarked) [serine hydroxamate], the “reduction of infarct volumes compared with the vehicle group” value with mice is given as 30%. Further, the living kidney cells in the data set on PCT cells (anoxia 24 h, <0.1% O2, cells treated with the inhibitor beforehand, CHX 1 to 10 pg/ml, Fig.1A) was 95%.
`N[C@@H](CO)C(=O)O` [serine]: the “renal cell survival after 24 h of anoxia (in words)” value in the data set with PCT cells (anoxia 24 h, <0.1% O2, Fig.1A) is listed as “no effect”.
